Test results: patent US20240277717A1, “APPLICATION OF GANCICLOVIR IN PREPAPRATION OF MEDICINE FOR TREATING ALLERGIC RHINITIS” (Union Hospital, Tongji Medical College, Huazhong University …, priority 2023, published 2024)
Entries after “also recorded” stand apart in the source; their conditions may differ.

Columns and labels:
[1] = system: peripheral blood mononuclear cells (PBMCs); assay: GCV medicine test of the PBMCs in vitro (flow cytometry); format: cell-based, human; conditions: 400 μM GCV, 48 hours
Description: The peripheral blood of patients with the intractable AR is collected. The peripheral blood mononuclear cells (PBMCs) are isolated within 8 hours using a lymphocyte separation medium (MP biomedicals) and suspended in Roswell Park Memorial Institute (RPMI) 1640 medium (Gibco™) containing 10% heat-inactivated fetal bovine serum (Gibco™, Grand Island) and 1% penicillin and streptomycin (Gibco™) at a density of 1×10^6/mL. Three wells are set for each sample, including: a non treated well (also referred to as NT well), a well adding 1 microliter (μL) dimethyl sulfoxide (DMSO; Solarbio®) (also referred to as DMSO well), and a well adding 400 micromoles per liter (μM) of the GCV (diluted with DMSO, Selleck) (also referred to as GCV well). The PBMCs are cultured in a 24-well cell culture plate (Corning®, NY) under different stimulations in a 5% CO2, 37° C. cell incubator. According to the instructions of Leukocyte Activation Cocktail with BD GolgiPlug™ (BD Bioscience), the PBMCs are added to a cell culture medium 4-6 hours before dyeing to improve the dyeing effect of intracellular cytokines. After 48 hours of cell culture, the cell solution is collected and dyed with anti-human fixable viability stain 510 (FVS-BV510), brilliant violet 605 anti-human cluster of differentiation 4 antibody (CD4-BV605), and […] isothiocyanate isomer I (CD8-FITC), and then dyed with interleukin-4-brilliant violet™ 421 dyes (IL-4-BV421), interleukin-17A-phycoerythrin (IL-17A-PE), human interferon-gamma-PE-cyanine7 dye (IFNγ-PE-Cy7), and FOXP3-BB700 (all from BD Bioscience) after breaking the nucleus with a fixed nuclear breaker (eBioscience™). BD LSRFortessa™ X-20 (BD Biosciences, USA) and FlowJo™ software (FlowJo, Ashland, OR USA) are used for analysis.

[2] = system: EB virus, human-cytomegalovirus, HSV 1, 2, 3, 6, 7, 8; assay: DNA virus sequence enrichment analysis of nasal scraping cells; format: in vivo; conditions: GCV effective group
Description: The scraped mucosal epithelial cells are placed in a TRIzol™ reagent (Invitrogen™) and stored in liquid nitrogen for processing. Library preparation and high-throughput sequencing, data analysis, ribonucleic acid (RNA) sequence and deoxyribonucleic acid (DNA) virus sequence enrichment analysis are performed by Seqhealth Technology Co., Ltd. (China; wuhan). Sample quality analysis is performed by Nanodrop™ OneC spectrophotometer to detect expression at A260 and A280. Qualified samples are finally quantified by QubitR®3.0 fluorometer and Qubit™ RNA broad-range (BR) Assay kits. The original data is first filtered by Trimomatic (Version 0.36). Counting by FeatureCounts, and then calculate reads per kilobase of exon model per million mapped reads (RPKM). Differentially expressed genes between groups are identified using an edgeR package (Version 3.12.1). In analysis, P value<0.05 and fold change (FC) higher than 2 are considered to be significant differences in gene expression between groups.

[3] = PBMCs of GCV effective and ineffective groups

SMILES: Nc1nc(O)c2ncn(COC(CO)CO)c2n1 [GCV, Ganciclovir]
- percentage of CD4+IFNγ+ cells, change [1, 3]: no significant change
- percentage of CD4+IL4+ cells, change [1, 3]: no significant change
- percentage of CD4+IL17A+ cells, change [1, 3]: no significant change
- percentage of CD8+IFNγ+ cells/CD4+, change [1, 3]: no significant change
- percentage of CD4+FOXP3+ cells/CD4+ cells, GCV well vs DMSO well ([1]; PBMCs of GCV effective group n=26, p<0.001): significantly increased; also recorded: significantly higher
- percentage of CD4+FOXP3+ cells/CD4+ cells, GCV well vs DMSO well ([1]; PBMCs of GCV ineffective group n=14, p<0.05): significantly lower
- enrichment of genes of EB virus, human-cytomegalovirus, HSV 1, 2, 3, 6, 7, 8 before and after GCV treatment (FIG. 3B) [2]: no statistical difference
